pIC50: −log10 of the molar value.
Tested on: 292921-168-R-J2-PDC KRAS tumor spheroid viability
Experiment: Anticancer human tumor 292921-168-R-J2-PDC patient-derived pancreatic carcinoma cell line growth inhibition [KRAS2]
Conditions: spheroids with HUVEC and MSC; for pIC50: curve of first compound; for viability, T/C: stronger effect = lower value
How it was run: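 Combination screen of spheroid viability in tumor-cell co-cultures with endothelial (HUVEC) and mesenchymal stem cell stroma. Each agent was tested in half-log dilutions, topping at clinical Cmax or at 10 microM without a known Cmax.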

[1] = second compound 0.1 µM, first compound 0.0316 µM
[2] = second compound 0.1 µM, first compound 0.1 µM
[3] = second compound 0.1 µM, first compound 0.316 µM
[4] = second compound 0.1 µM, first compound 1 µM
[5] = second compound 0.1 µM, first compound 3.16 µM
[6] = second compound 0.1 µM, first compound 10 µM
[7] = second compound 0.316 µM, first compound 0.0316 µM
[8] = second compound 0.316 µM, first compound 0.1 µM
[9] = second compound 0.316 µM, first compound 0.316 µM
[10] = second compound 0.316 µM, first compound 1 µM
[11] = second compound 0.316 µM, first compound 3.16 µM
[12] = second compound 0.316 µM, first compound 10 µM
[13] = second compound 1 µM, first compound 0.0316 µM
[14] = second compound 1 µM, first compound 0.1 µM
[15] = second compound 1 µM, first compound 0.316 µM
[16] = second compound 1 µM, first compound 1 µM
[17] = second compound 1 µM, first compound 3.16 µM
[18] = second compound 1 µM, first compound 10 µM
[19] = second compound 3.16 µM, first compound 0.0316 µM
[20] = second compound 3.16 µM, first compound 0.1 µM
[21] = second compound 3.16 µM, first compound 0.316 µM
[22] = second compound 3.16 µM, first compound 1 µM
[23] = second compound 3.16 µM, first compound 3.16 µM
[24] = second compound 3.16 µM, first compound 10 µM
[25] = second compound 10 µM, first compound 0.0316 µM
[26] = second compound 10 µM, first compound 0.1 µM
[27] = second compound 10 µM, first compound 0.316 µM
[28] = second compound 10 µM, first compound 1 µM
[29] = second compound 10 µM, first compound 3.16 µM
[30] = second compound 10 µM, first compound 10 µM
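Further: drug exposure lasted seven days after spheroids formed for three days.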
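Wherever viability, T/C is given: percent of DMSO vehicle control viability which is 100%.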

SMILES | pIC50 (second compound 0.1 µM) | pIC50 (second compound 0.316 µM) | pIC50 (second compound 1 µM) | pIC50 (second compound 3.16 µM) | pIC50 (second compound 10 µM) | viability, T/C [1] [%] | viability, T/C [2] [%] | viability, T/C [3] [%] | viability, T/C [4] [%] | viability, T/C [5] [%] | viability, T/C [6] [%] | viability, T/C [7] [%] | viability, T/C [8] [%] | viability, T/C [9] [%] | viability, T/C [13] [%] | viability, T/C [14] [%] | viability, T/C [19] [%] | viability, T/C [20] [%] | viability, T/C [25] [%] | viability, T/C [26] [%] | also measured
O=C(c1cc(Cc2n[nH]c(=O)c3ccccc23)ccc1F)N1CCN(C(=O)C2CC2)CC1 + CNCc1ccccc1-c1csc(C(C)Nc2nc(C)nc3cc(OC)c(OC)cc23)c1 | 5.21 | 5.26 | 5.31 | > 7.50 | > 7.50 | 98 | 109 | 99.2 | 87.6 | 61.2 | 41.6 | 88.7 | 79 | 76.8 | 83.5 | 68.3 | 0.14 | 0.13 | 0.33 | 0.1 | viability, T/C [10]: 74%; viability, T/C [11]: 62.3%; viability, T/C [12]: 37.6%; viability, T/C [15]: 69.9%; viability, T/C [16]: 70.1%; viability, T/C [17]: 52.3%; viability, T/C [18]: 42.4%; viability, T/C [21]: 0.11%; viability, T/C [22]: 0.1%; viability, T/C [23]: 0.1%; viability, T/C [24]: 0.17%; viability, T/C [27]: 0.1%; viability, T/C [28]: 0.11%; viability, T/C [29]: 0.11%; viability, T/C [30]: 0.19%
COc1cc2nccc(Oc3ccc(NC(=O)C4(C(=O)Nc5ccc(F)cc5)CC4)cc3)c2cc1OC + CC1OCC2(CCN(c3cnc(Sc4ccnc(N)c4Cl)c(N)n3)CC2)C1N | 5.79 | 6.24 | > 7.50 | > 7.50 | > 7.50 | 81 | 82.6 | 72 | 65.9 | 28.9 | 19 | 60.9 | 61.4 | 54.6 | 42.2 | 45.7 | 35.4 | 33.5 | 31.7 | 30.2 | viability, T/C [10]: 45.1%; viability, T/C [11]: 25.6%; viability, T/C [12]: 17.1%; viability, T/C [15]: 26.1%; viability, T/C [16]: 33%; viability, T/C [17]: 22.5%; viability, T/C [18]: 13%; viability, T/C [21]: 35.5%; viability, T/C [22]: 26.8%; viability, T/C [23]: 17.8%; viability, T/C [24]: 12%; viability, T/C [27]: 31.7%; viability, T/C [28]: 24.9%; viability, T/C [29]: 14.3%; viability, T/C [30]: 9.5%
Cn1ncnc1[C@H]1c2n[nH]c(=O)c3cc(F)cc(c23)N[C@@H]1c1ccc(F)cc1 + CNCc1ccccc1-c1csc(C(C)Nc2nc(C)nc3cc(OC)c(OC)cc23)c1 | < 7.00 | < 7.00 | 7.62 | > 9.50 | > 9.50 | 75.9 | 63.5 | – | – | – | – | 65.5 | 56.9 | – | 48.6 | 41.4 | 0.08 | 0.13 | 0.35 | 0.15 | viability, T/C (second compound 0.1 µM, first compound 0.000316 µM): 87.7%; viability, T/C (second compound 0.1 µM, first compound 0.001 µM): 87.8%; viability, T/C (second compound 0.1 µM, first compound 0.00316 µM): 84.2%; viability, T/C (second compound 0.1 µM, first compound 0.01 µM): 81.3%; viability, T/C (second compound 0.316 µM, first compound 0.000316 µM): 77.3%; viability, T/C (second compound 0.316 µM, first compound 0.001 µM): 84.3%; viability, T/C (second compound 0.316 µM, first compound 0.00316 µM): 79.9%; viability, T/C (second compound 0.316 µM, first compound 0.01 µM): 69.2%; viability, T/C (second compound 1 µM, first compound 0.000316 µM): 57.3%; viability, T/C (second compound 1 µM, first compound 0.001 µM): 55.7%; viability, T/C (second compound 1 µM, first compound 0.00316 µM): 57.6%; viability, T/C (second compound 1 µM, first compound 0.01 µM): 52.6%; viability, T/C (second compound 3.16 µM, first compound 0.000316 µM): 0.07%; viability, T/C (second compound 3.16 µM, first compound 0.001 µM): 0.08%; viability, T/C (second compound 3.16 µM, first compound 0.00316 µM): 0.08%; viability, T/C (second compound 3.16 µM, first compound 0.01 µM): 0.07%; viability, T/C (second compound 10 µM, first compound 0.000316 µM): 0.08%; viability, T/C (second compound 10 µM, first compound 0.001 µM): 0.08%; viability, T/C (second compound 10 µM, first compound 0.00316 µM): 0.48%; viability, T/C (second compound 10 µM, first compound 0.01 µM): 0.87%
COc1cc2nccc(Oc3ccc(NC(=O)C4(C(=O)Nc5ccc(F)cc5)CC4)cc3)c2cc1OC + C=CC(=O)N1CCN(c2nc(=O)n(-c3c(C)ccnc3C(C)C)c3nc(-c4c(O)cccc4F)c(F)cc23)C(C)C1 | 5.71 | 5.70 | 5.77 | 6.09 | > 7.50 | 102 | 102 | 103 | 79.6 | 28.9 | 18.6 | 122 | 112 | 102 | 111 | 108 | 74.1 | 77.6 | 18.9 | 25.4 | viability, T/C [10]: 77%; viability, T/C [11]: 30.9%; viability, T/C [12]: 19.8%; viability, T/C [15]: 96.3%; viability, T/C [16]: 69.3%; viability, T/C [17]: 27%; viability, T/C [18]: 17.2%; viability, T/C [21]: 62.9%; viability, T/C [22]: 49.6%; viability, T/C [23]: 18.9%; viability, T/C [24]: 14%; viability, T/C [27]: 15.7%; viability, T/C [28]: 22.5%; viability, T/C [29]: 11.1%; viability, T/C [30]: 6.69%

From PubChem BioAssay AID1963870 (Molecular Pharmacology Branch, DTP, NCI, 2024)
